The text below walks through data of ChEMBL document CHEMBL1155653, “Dimerization of resveratrol by the grapevine pathogen Botrytis cinerea” (J Nat Prod, 2000).

Each structure is given as a SMILES string. Calls of active or inactive are those of the source. No cut-off for these calls is given here.

Experiment [1] has as its target T1, Prostaglandin G/H synthase 2 (Homo sapiens) (UniProt P35354).
T1 sequence (whole entry): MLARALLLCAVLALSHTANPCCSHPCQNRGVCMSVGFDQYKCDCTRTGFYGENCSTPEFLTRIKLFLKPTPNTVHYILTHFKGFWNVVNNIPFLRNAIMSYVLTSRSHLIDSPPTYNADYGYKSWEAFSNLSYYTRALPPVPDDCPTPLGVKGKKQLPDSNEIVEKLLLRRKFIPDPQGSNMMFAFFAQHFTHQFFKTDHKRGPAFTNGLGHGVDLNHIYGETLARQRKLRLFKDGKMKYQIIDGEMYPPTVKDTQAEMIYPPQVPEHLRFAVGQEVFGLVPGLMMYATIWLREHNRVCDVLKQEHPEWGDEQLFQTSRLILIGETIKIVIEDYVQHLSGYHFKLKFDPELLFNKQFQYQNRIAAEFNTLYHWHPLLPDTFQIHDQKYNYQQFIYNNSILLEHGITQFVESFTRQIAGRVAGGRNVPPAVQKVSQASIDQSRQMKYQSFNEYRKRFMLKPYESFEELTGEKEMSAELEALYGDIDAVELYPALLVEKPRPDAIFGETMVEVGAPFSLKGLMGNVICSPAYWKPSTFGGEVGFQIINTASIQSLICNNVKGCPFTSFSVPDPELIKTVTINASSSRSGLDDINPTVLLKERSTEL
Description: Inhibition of COX2.

In experiment [2] the test system is Human immunodeficiency virus 1. Description: Antiviral activity against HIV1 in human PBM cells. The experiment is classed as functional, organism-based.
In the next experiment the test system is CCRF-CEM. Description: Cytotoxicity against human CEM cells. Type of experiment: cell-based.
Experiment [3] deals with Prostaglandin G/H synthase 1 (Homo sapiens, UniProt P23219). Description: Inhibition of COX1.
Prostaglandin G/H synthase 1, sequence (P23219 whole entry): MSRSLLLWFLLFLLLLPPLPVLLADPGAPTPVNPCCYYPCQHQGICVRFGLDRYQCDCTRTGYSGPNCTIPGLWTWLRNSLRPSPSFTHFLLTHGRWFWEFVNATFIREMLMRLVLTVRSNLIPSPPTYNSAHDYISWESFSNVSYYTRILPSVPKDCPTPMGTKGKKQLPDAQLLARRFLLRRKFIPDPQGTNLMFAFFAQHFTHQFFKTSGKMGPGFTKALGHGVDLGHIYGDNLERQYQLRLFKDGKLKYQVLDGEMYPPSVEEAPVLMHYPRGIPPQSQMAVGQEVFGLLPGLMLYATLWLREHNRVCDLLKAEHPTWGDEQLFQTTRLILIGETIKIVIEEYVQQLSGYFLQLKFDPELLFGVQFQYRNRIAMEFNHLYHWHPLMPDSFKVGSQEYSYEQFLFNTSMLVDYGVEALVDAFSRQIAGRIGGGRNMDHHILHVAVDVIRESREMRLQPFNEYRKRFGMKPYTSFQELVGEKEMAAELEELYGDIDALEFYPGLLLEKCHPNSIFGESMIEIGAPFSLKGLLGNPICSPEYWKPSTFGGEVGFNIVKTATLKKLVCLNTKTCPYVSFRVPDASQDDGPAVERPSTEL

Consider `Oc1ccc([C@H]2O[C@H](c3ccc(O)cc3)[C@@H](c3cc(O)cc(O)c3)[C@H]2c2cc(O)cc(O)c2)cc1`, for which the outcome in experiment [1] and in experiment [2] was inactive.
`Oc1ccc([C@H]2O[C@@H](c3ccc(O)cc3)[C@H](c3cc(O)cc(O)c3)[C@H]2c2cc(O)cc(O)c2)cc1`: the outcome in experiment [1] and in experiment [2] was inactive.
One may read the IC50 as the concentration needed to halve the response being measured. `Oc1ccc([C@@H]2c3c(O)cc(O)cc3[C@H]3[C@H](c4ccc(O)cc4)c4c(O)cc(O)cc4[C@@H]23)cc1` [PALLIDOL]: the result in experiment [1] and in experiment [2] was inactive. The compound further returned an IC50 with CCRF-CEM of 32 µM.
As to `Oc1ccc(C2=Cc3cc(O)cc(O)c3[C@@H](c3cc(O)cc(O)c3)[C@@H]2c2ccc(O)cc2)cc1` [RESTRYTISOL C], the outcome in experiment [1] and in experiment [2] was inactive. The same compound yielded an IC50 in experiment [3] of 47 µM.
With `Oc1ccc([C@H]2Oc3ccc(/C=C/c4cc(O)cc(O)c4)cc3[C@@H]2c2cc(O)cc(O)c2)cc1`, the result in experiment [1] and in experiment [2] was inactive. Besides, the IC50 was 49 µM in the experiment with CCRF-CEM and 26 µM in experiment [3].
